Consider one molecule from patent US11648233B2, “Heripenes with pain-relieving effect, active substances of Hericium erinaceus mycelium and the preparation method thereof, and pharmaceutical composition containing the heripenes or active substances” (GRAPE KING BIO LTD., priority 2015, dated 2023).

The subject of this experiment is P2R (P2-purinoceptor) in human osteosarcoma HOS cells. The experiment is described as follows: Inhibition of ATP-induced P2R calcium signals (Fura-2 fluorescence) in HOS cells. It counts as cell-based. As to conditions: erinacine S 5, 10 and 15 μg/ml (FIG. 7B). As for the experimental part:
Cells were filled with a fluorescent dye-based calcium indicator, “Fura-2, AM cell permeant” (ThermoFisher Scientific, Waltham, Mass., U.S.A.), and the variation of the fluorescence level at an emission wavelength of 505 nm was determined at two excitation wavelengths of 340 nm and 380 nm using a fluorescence spectrometer (SPEX® 1681, Spec Industries, Inc., New Jersey, U.S.A.). During the experiment, ATP was added to cells to stimulate the P2R expression, and the variation of the fluorescence level was observed. Finally, 1 wt. % digitonin was added to enable the cells to become transparent, and the maximum fluorescence ratio (Rmax) was obtained at a concentration of 2 mM Ca^2+. Ethyleneglycol bis(2-aminoethylether)tetraacetic acid (EGTA) then was added to chelate with the calcium ions to obtain a minimum fluorescence ratio (Rmin). The dissociation coefficient (Kd) of fura-2 to Ca^2+ is 225 nM. The intracellular calcium-ion concentration was calculated using formulas (Grynkiewicz et al., J. Biol. Chem. 1985. 260(6):3440-3450). […]
Comparing the P2R-correlated calcium signals in three cell lines stimulated with ATP, the variation of the calcium-ion concentration in human osteosarcoma HOS cells was the most significant, and thus the influence of the agent on P2R can clearly be determined. […]

Regarding `CC(C)C1=C2C3CCC4=C(O)C(=O)C5(O)COC6OC(C4C65O)C3(C)CCC2(C)CC1` (stereo not shown) [erinacine S], the “inhibition effect on the variation of the intracellular calcium-ion concentration induced by ATP” value was “more significant in a dosage-dependent manner”.
